Measured values taken from article PMC5735191, “Computational and biological profile of boronic acids for the detection of bacterial serine- and metallo-β-lactamases” (Scientific Reports, 2017).
Where “and” joins values, the source holds several entries; their conditions need not be identical. Equal values may be shown once.

Tests used:
VIM-2 [1] = target: T1, VIM-2 (Escherichia coli, UniProt Q5U7L7); experiment: Enzyme inhibition assay (spectrophotometric, cephalothin reporter substrate); assay type: biochemical; design: made in house; host or cells: E. coli BL21(DE3), pET9-VIM-2; conditions: mean of two replicates, five inhibitor concentrations, Dixon plot; pH 7.5, 25 °C
Description: (§1) To obtain a well-characterized inhibition profile for each selected boronic acids against each BLs in the panel, the compounds were tested for inhibitory activity. The protein panel included clinically- and epidemiologically-relevant β-lactamases, representatives of each structural class (A to D), as mentioned above. Each BL was overexpressed in E. coli, purified by chromatography and characterized as already reported. (SI, Table S1)[40]–[45].
(§2) Reactions were initiated with addition of BL enzyme (the concentration values for each BL enzyme into the SI, Table S1 have been reported).

[2] = test system: NDM-1 E. coli clinical isolate; experiment: Susceptibility testing (MIC), synergy with cefotaxime; assay type: cell-based; conditions: antibiotic:inhibitor 1:1 (w/w)
Description: (§3) The minimum inhibitory concentrations (MICs), for CAZ and CTX alone and in combination with boronic acids against resistant strains were determined (Table 2a,b).
(§4) Susceptibility testing was performed in Mueller Hinton broth and interpreted following the guidelines of the National Committee for Clinical Laboratory Standards[70]. To test the inhibitory activity, the compounds were dissolved in DMSO, 50% in water, and further dilutions were performed using growth medium. In all cases tests were performed at a final DMSO concentration below 5%, avoiding unwanted DMSO inhibition effect on strains growth (blank test control with DMSO were performed). The MICs of cefotaxime and ceftazidime alone and in association were determined against several relevant Gram-negative clinical isolates, selected from the pathogen collection of the Spanish Network for Research in Infectious Pathology (REIPI; Spain). The selection was based on strains capability of producing β-lactamases of interest for the present study. The antibiotic:inhibitor ratio was 1:1 (w/w).

[3] = test system: VIM-2 P. aeruginosa clinical isolate; experiment: as above; assay type: cell-based; conditions: antibiotic:inhibitor 1:1 (w/w)
Description: as §3, §4

[4] = test system: OXA-24 A. baumanii clinical isolate; experiment: as above; assay type: cell-based; conditions: antibiotic:inhibitor 1:1 (w/w)
Description: as §3, §4

[5] = test system: CTX-M-15 E. coli clinical isolate; experiment: as above; assay type: cell-based
Description: as §3, §4

[6] = test system: KPC-2 K. pneumoniae clinical isolate; experiment: as above; assay type: cell-based; conditions: KPC-2 K. pneumoniae; antibiotic:inhibitor 1:1 (w/w)
Description: as §3, §4

[7] = test system: E. aerogenes clinical isolate, overproduction chromosomal AmpC; experiment: Susceptibility testing (MIC), synergy with ceftazidime; assay type: cell-based; conditions: antibiotic:inhibitor 1:1 (w/w)
Description: as §3, §4

[8] = test system: P. aeruginosa 49, overproduction chromosomal AmpC; experiment: as above; assay type: cell-based; conditions: antibiotic:inhibitor 1:1 (w/w)
Description: as §3, §4

[9] = test system: P. aeruginosa 148, overproduction chromosomal AmpC; experiment: as above; assay type: cell-based; conditions: antibiotic:inhibitor 1:1 (w/w)
Description: as §3, §4

[10] = test system: E. coli clinical isolate, overproduction chromosomal AmpC; experiment: as above; assay type: cell-based; conditions: antibiotic:inhibitor 1:1 (w/w)
Description: as §3, §4

[11] = test system: E. coli clinical isolate, plasmidic AmpC - DHA1; experiment: as above; assay type: cell-based; conditions: E. coli, plasmidic AmpC - DHA1; antibiotic:inhibitor 1:1 (w/w)
Description: as §3, §4

[12] = test system: P. aeruginosa 12, overproduction chromosomal AmpC; experiment: as above; assay type: cell-based; conditions: antibiotic:inhibitor 1:1 (w/w)
Description: as §3, §4

[13] = test system: P. aeruginosa 120, overproduction chromosomal AmpC; experiment: as above; assay type: cell-based; conditions: antibiotic:inhibitor 1:1 (w/w)
Description: as §3, §4

[14] = test system: E. cloacae clinical isolate, overproduction chromosomal AmpC; experiment: as above; assay type: cell-based; conditions: overproduction chromosomal AmpC, antibiotic:inhibitor 1:1 (w/w)
Description: as §3, §4

[15] = test system: P. aeruginosa 199, overproduction chromosomal AmpC; experiment: as above; assay type: cell-based; conditions: antibiotic:inhibitor 1:1 (w/w)
Description: as §3, §4

KPC-2 = target: T2, KPC-2 (Klebsiella pneumoniae, UniProt Q9F663); experiment: Enzyme inhibition assay (spectrophotometric, cephalothin reporter substrate); assay type: biochemical; conditions: mean of two replicates, five inhibitor concentrations, Dixon plot; pH 7.5, 25 °C
T2 construct: made in house; host or cells: E. coli BL21(DE3), pET9-KPC2
T2 sequence (Q9F663 25-293 limits assumed): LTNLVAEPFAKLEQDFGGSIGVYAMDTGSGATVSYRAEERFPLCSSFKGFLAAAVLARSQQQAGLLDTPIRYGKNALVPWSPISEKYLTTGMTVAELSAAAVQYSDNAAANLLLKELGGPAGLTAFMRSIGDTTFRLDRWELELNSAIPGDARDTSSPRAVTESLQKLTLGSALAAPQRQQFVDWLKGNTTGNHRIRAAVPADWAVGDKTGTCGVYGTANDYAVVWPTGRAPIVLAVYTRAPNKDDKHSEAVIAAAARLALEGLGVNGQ
Description: as §1, §2

OXA-24 = target: T3, OXA-24 (Acinetobacter baumannii, UniProt Q8RLA6); experiment: as above; assay type: biochemical
T3 construct: GST (N, cleaved yes); made in house; host or cells: E. coli DH5α, pGEX-2T-OXA-24
T3 sequence (Q8RLA6 22-275 limits assumed): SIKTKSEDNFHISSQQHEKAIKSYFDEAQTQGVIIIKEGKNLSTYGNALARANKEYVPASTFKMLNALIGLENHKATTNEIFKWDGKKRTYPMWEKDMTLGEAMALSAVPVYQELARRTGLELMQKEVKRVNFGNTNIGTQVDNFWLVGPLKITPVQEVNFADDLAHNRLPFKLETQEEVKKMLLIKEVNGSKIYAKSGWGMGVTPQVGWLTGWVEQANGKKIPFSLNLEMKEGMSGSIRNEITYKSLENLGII
Description: as §1, §2
(§5) From the resulting inhibition percentages at each different inhibitor concentration and, assuming a competitive inhibition for the boronic compounds panel, it was possible to calculate the IC50 values from the Dixon plot 1/V vs [I], using the equation IC50 = […][61], where v0 is the rate of hydrolysis of the reporter substrate (v0 being the rate measured in the absence of inhibitor), q the y axis intercept and m the slope of the resulting linear regression.

CTX-M-15 = target: T4, CTX-M-15 (Escherichia coli, UniProt Q9EXV5); experiment: as above; assay type: biochemical; conditions: IC50 CTX-M-15, mean of two replicates, five inhibitor concentrations, Dixon plot; pH 7.5, 25 °C
T4 construct: made in house; host or cells: E. coli BL21(DE3), pET-9a derivative (pET-CTX-M-15)
T4 sequence (Q9EXV5 entry or part of it): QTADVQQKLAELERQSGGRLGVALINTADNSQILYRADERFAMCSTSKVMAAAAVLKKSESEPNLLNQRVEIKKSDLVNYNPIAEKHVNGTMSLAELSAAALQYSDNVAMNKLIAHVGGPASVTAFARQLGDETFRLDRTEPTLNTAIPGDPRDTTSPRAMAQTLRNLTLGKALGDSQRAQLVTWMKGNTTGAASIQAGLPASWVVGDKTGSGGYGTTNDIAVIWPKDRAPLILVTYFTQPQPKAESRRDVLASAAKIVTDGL
Description: as §1, §2, §5

AmpC β-lactamase = target: T5, AmpC β-lactamase (Pseudomonas aeruginosa, UniProt P24735); experiment: as above; assay type: biochemical, P. aeruginosa; conditions: mean of two replicates, five inhibitor concentrations, Dixon plot, 100 μM cephalothin, pH 7.5, 25 °C
T5 construct: made in house; host or cells: E. coli BL21(DE3), plasmid pET-9aAmpC
T5 sequence (P24735 27-397): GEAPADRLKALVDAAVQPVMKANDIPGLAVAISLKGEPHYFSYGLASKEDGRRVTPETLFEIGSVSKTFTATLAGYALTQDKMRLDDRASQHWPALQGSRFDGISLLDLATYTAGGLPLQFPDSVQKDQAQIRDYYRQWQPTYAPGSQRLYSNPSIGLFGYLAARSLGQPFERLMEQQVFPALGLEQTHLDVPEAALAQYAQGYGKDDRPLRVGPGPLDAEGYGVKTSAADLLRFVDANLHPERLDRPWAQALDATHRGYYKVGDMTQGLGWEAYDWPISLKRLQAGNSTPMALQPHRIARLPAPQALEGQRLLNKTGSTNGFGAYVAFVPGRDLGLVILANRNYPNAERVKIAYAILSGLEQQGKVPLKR
Description: as §1, §2, §5

NDM-1 [16] = target: T6, NDM-1 (Klebsiella pneumoniae, UniProt C7C422); experiment: as above; assay type: biochemical; design: His-tag; made in house; host or cells: E. coli BL21(DE3), pET-15-NDM-1; conditions: mean of two replicates, five inhibitor concentrations, Dixon plot; pH 7.5, 25 °C
T6 sequence (C7C422 29-270 limits assumed): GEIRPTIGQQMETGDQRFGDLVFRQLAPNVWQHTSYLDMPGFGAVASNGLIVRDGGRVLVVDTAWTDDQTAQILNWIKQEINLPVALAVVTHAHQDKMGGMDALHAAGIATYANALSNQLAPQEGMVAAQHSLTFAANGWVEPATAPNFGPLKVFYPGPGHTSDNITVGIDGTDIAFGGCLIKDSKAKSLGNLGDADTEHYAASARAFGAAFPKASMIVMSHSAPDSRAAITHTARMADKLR
Description: as §1, §2

NDM-1 [17] = target: T6, NDM-1
VIM-2 [18] = target: T1, VIM-2

In the case of `CC1(C)OB(c2cc3cccc(C(=O)O)c3s2)OC1(C)C` [Compound 5], the IC50 (VIM-2 [1]) is reported as 27.7 ± 3.65 µM, the “MIC of cefotaxime (CTX) in combination with compound” value (“MIC of cefotaxime (CTX)” for short) [2] is reported as 1024 µg/mL and the “MIC of cefotaxime (CTX)” value [3] is reported as 1024 µg/mL. The “MIC of cefotaxime (CTX)” value [4] was 16 µg/mL, the “MIC of cefotaxime (CTX)” value ([5]; CTX-M-15 E. coli, antibiotic:inhibitor 1:1 (w/w)) was 16 µg/mL and the “MIC reduction of CTX (fold)” value ([5]; E. coli producing CTX-M-15, CTX combination) was 4 fold. The “MIC of cefotaxime (CTX)” value [6] was 4 µg/mL, the “MIC of ceftazidime (CAZ) in combination with compound” value (from here on “MIC of ceftazidime (CAZ)”) [7] was 32 µg/mL and the “MIC of ceftazidime (CAZ)” value [8] was 32 µg/mL. For the same compound, the “MIC of ceftazidime (CAZ)” value [9] was 32 µg/mL, the “MIC of ceftazidime (CAZ)” value [10] was 64 µg/mL and the “MIC of ceftazidime (CAZ)” value [11] was 512 µg/mL. The “MIC of ceftazidime (CAZ)” value [12] was 16 µg/mL, the “MIC of ceftazidime (CAZ)” value [13] was 4 µg/mL and the “MIC of ceftazidime (CAZ)” value [14] was 64 µg/mL. The “MIC of ceftazidime (CAZ)” value [15] was 16 µg/mL, the IC50 (KPC-2) was 5.38 µM and 8.2 µM and the IC50 (OXA-24) was 23 ± 4.38 µM. It also gave an IC50 (CTX-M-15) of 9.4 ± 3.48 µM, an IC50 (AmpC β-lactamase) of 1.3 ± 0.01 µM and an IC50 (NDM-1 [16]) of 32.4 ± 7.14 µM.
With `C[C@@H](O)[C@H]1C(=O)N2C(C(=O)O)=C(SCCN=CN)C[C@H]12` [Imipenem, imipenem] the kcat (NDM-1 [17]; β-lactam substrate of NDM-1) was 520 ± 84 s⁻¹, the Km (NDM-1 [17]; β-lactam substrate of NDM-1, enzyme 0.021 µM) was 58 ± 6 µM and the kcat (VIM-2 [18]; β-lactam substrate of VIM-2) was 8 ± 2 s⁻¹. The Km (VIM-2 [18]; β-lactam substrate of VIM-2, enzyme 0.043 µM) was 11 ± 3 µM.
